Laboratory results reported in patent US9340507B2, “Substituted 4-pyridones and their use as inhibitors of neutrophil elastase activity” (Boehringer Ingelheim International GmbH, priority 2012, dated 2016).

Target: Human neutrophil elastase (Homo sapiens (Human), UniProt P08246)
Assay: Human Neutrophil Elastase Assay
Type: biochemical
Conditions: substrate MeOSuc-Ala-Ala-Pro-Val-AMC 250 μM, pH 7.5, fluorescence
Description: Human Neutrophil Elastase Assay
All other materials were of the highest grade commercially available.
The following buffers were used: Compound buffer: 100 mM Tris, 500 mM NaCl, adjusted to pH 7.5; Assay buffer: 100 mM Tris, 500 mM NaCl, adjusted to pH 7.5, containing 0.01% BSA.
Assay conditions: Test compounds were prediluted in DMSO and subsequently in compound buffer (5% DMSO final). […] After inactivation of the enzyme, fluorescence intensities were measured at 380 nm excitation and 460 nm emission wavelengths.
Each plate contains wells with a high value control (DMSO+enzyme+substrate) and wells with a low value control (DMSO+inactivated enzyme+substrate). IC50 values were estimated using a sigmoidal concentration response curve with variable slope. Means of low values were taken as 0%, means of high values as 100%. IC50 values of selected compound in the Neutrophil Elastase assay: […]

Chain of Human neutrophil elastase (P08246 30-267): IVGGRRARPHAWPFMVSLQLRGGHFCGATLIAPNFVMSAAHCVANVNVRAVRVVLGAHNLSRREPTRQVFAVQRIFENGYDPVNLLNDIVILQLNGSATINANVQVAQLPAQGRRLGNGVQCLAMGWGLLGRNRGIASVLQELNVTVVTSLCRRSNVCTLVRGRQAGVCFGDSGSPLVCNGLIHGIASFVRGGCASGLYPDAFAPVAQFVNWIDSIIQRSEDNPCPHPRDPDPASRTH

Row | Compound | IC50
1 | Cc1c(-c2cccc(C(F)(F)F)c2)c(=O)c(C(=O)NCc2ccc([S+](C)[O-])cc2)cn1C(C)C (racemic) [Example 27.1, 1-Isopropyl-6-methyl-4-oxo-5-(3-trifluoromethyl-phenyl)-1,4-dihydro-pyridine-3-carboxylic acid 4-methanesulfinyl-benzylamide] | 0.009 µM
2 | Cc1c(-c2cccc(C(F)(F)F)c2)c(=O)c(C(=O)NCc2ccc([S+](C)[O-])cc2)cn1C(C)C (single isomer, unassigned) [Example 27.1B] | 0.03 µM
3 | CCn1cc(C(=O)NCc2ccc(S(C)(=O)=O)cc2)c(=O)c(-c2cccc(C(F)(F)F)c2)c1C [Example 1.1, 1-Ethyl-6-methyl-4-oxo-5-(3-trifluoromethyl-phenyl)-1,4-dihydro-pyridine-3-carboxylic acid 4-methanesulfonyl-benzylamide] | 0.033 µM
4 | Cc1c(-c2cccc(C(F)(F)F)c2)c(=O)c(C(=O)NCc2ccc(S(C)(=O)=O)cc2)cn1C(C)C [Example 1.2, 1-isopropyl-6-methyl-4-oxo-5-(3-trifluoromethyl-phenyl)-1,4-dihydro-pyridine-3-carboxylic acid 4-methanesulfonyl-benzylamide] | 0.012 µM
5 | CCCn1cc(C(=O)NCc2ccc(S(C)(=O)=O)cc2)c(=O)c(-c2cccc(C(F)(F)F)c2)c1C [Example 1.3] | 0.028 µM
6 | Cc1c(-c2cccc(C(F)(F)F)c2)c(=O)c(C(=O)NCc2ccc(S(C)(=O)=O)cc2)cn1CC1CC1(F)F (centres unmarked) [Example 1.7] | 0.037 µM
7 | CCn1cc(C(=O)NCc2ccc(S(C)(=O)=O)cn2)c(=O)c(-c2cccc(C(F)(F)F)c2)c1C [Example 2.1] | 0.057 µM
8 | CCCn1cc(C(=O)NCc2ccc(S(C)(=O)=O)cn2)c(=O)c(-c2cccc(C(F)(F)F)c2)c1C [Example 2.2] | 0.02 µM
9 | Cc1c(-c2cccc(C(F)(F)F)c2)c(=O)c(C(=O)NCc2ccc(S(C)(=O)=O)cn2)cn1CC(C)C [Example 2.3] | 0.03 µM
10 | Cc1c(-c2cccc(C(F)(F)F)c2)c(=O)c(C(=O)NCc2ccc(S(C)(=O)=O)cn2)cn1CC1CCOC1 (centres unmarked) [Example 2.4] | 0.073 µM
11 | Cc1nnc(CNC(=O)c2cn(C(C)C)c(C)c(-c3cccc(C(F)(F)F)c3)c2=O)o1 [Example 3.1, 1-Isopropyl-6-methyl-4-oxo-5-(3-trifluoromethyl-phenyl)-1,4-dihydro-pyridine-3-carboxylic acid (5-methyl-[1,3,4]oxadiazol-2-ylmethyl)-amide] | 0.038 µM
12 | Cc1c(-c2cccc(C(F)(F)F)c2)c(=O)c(C(=O)NCc2ccncc2)cn1C(C)C [Example 3.2] | 0.097 µM
13 | Cc1c(-c2cccc(C(F)(F)F)c2)c(=O)c(C(=O)NCc2cccnn2)cn1C(C)C [Example 3.3] | 0.09 µM
14 | Cc1c(-c2cccc(C(F)(F)F)c2)c(=O)c(C(=O)NCc2cnn(C)c2)cn1C(C)C [Example 3.4] | 0.062 µM
15 | Cc1c(-c2cccc(C(F)(F)F)c2)c(=O)c(C(=O)NCc2ccc(C#N)cc2)cn1C(C)C [Example 3.5] | 0.064 µM
16 | Cc1c(-c2cccc(C(F)(F)F)c2)c(=O)c(C(=O)NCc2cccc(S(C)(=O)=O)c2)cn1C(C)C [Example 3.6] | 0.089 µM
17 | Cc1c(-c2cccc(C(F)(F)F)c2)c(=O)c(C(=O)NCc2ccc(S(N)(=O)=O)cc2)cn1C(C)C [Example 3.7] | 0.04 µM
18 | Cc1c(-c2cccc(C(F)(F)F)c2)c(=O)c(C(=O)NCc2ccc(N3CCNC3=O)cc2)cn1C(C)C [Example 3.8] | 0.065 µM
19 | Cc1c(-c2cccc(C(F)(F)F)c2)c(=O)c(C(=O)NCc2ccc(CN3CCCC3=O)cc2)cn1C(C)C [Example 3.9] | 0.02 µM
20 | Cc1c(-c2cccc(C(F)F)c2)c(=O)c(C(=O)NCc2cccnn2)cn1C(C)C [Example 4.1] | 0.098 µM
21 | Cc1c(-c2cccc(C(F)F)c2)c(=O)c(C(=O)NCc2cnn(C)c2)cn1C(C)C [Example 4.2] | 0.06 µM
22 | Cc1nnc(CNC(=O)c2cn(C(C)C)c(C)c(-c3cccc(C(F)F)c3)c2=O)o1 [Example 4.3] | 0.027 µM
23 | Cc1c(-c2cccc(C(F)F)c2)c(=O)c(C(=O)NCc2cccc(=O)[nH]2)cn1C(C)C [Example 4.4] | 0.072 µM
